Data published in article PMC8279495, “Design, Synthesis, and Biological Evaluation of Boron-Containing Macrocyclic Polyamines and Their Zinc(II) Complexes for Boron Neutron Capture Therapy” (Journal of Medicinal Chemistry, 2021).
Entries after “also recorded” stand apart in the source; their conditions may differ. Where two headings read alike, the source gives them in different places.

Tests used:
A549 cells [1] = test: MTT cytotoxicity assay, A549 cells; type: cell-based, human; settings: read-out: IC50 A549
Procedure: (§1) HeLa S3, A549, and IMR-90 cells (1 × 10^4 cells/well) were seeded on 96-well plates (Watson) in cell culture medium. […] After incubation for 4 h, a formazan lysis solution (10% sodium dodecyl sulfate in 0.01 N HCl aq) (100 μL) was added and the resulting solution was incubated under same conditions overnight. The absorbance at λ = 570 nm was measured with a microplate reader (Bio-Rad).

IMR-90 cells = test: MTT cytotoxicity assay, IMR-90 cells; type: cell-based; settings: 0–200 μM, treatment for 24 h, normal human fibroblast
Procedure: as §1

HeLa S3 cells [2] = test: MTT cytotoxicity assay, HeLa S3 cells; type: cell-based, human; settings: treatment for 24 h
Procedure: as §1

[3] = Hydrolysis of the C–B bond observed by ^11B-NMR; type: physicochemical
Text: The Zn^2+ complex of the o-form 7 was not obtained due to the carbon–boron bond cleavage that occurred upon complexation with Zn^2+, as previously described.[20]

A549 cells [4] = test: Anti-tumor effect with thermal neutron irradiation (colony formation assay); type: cell-based, human; settings: A549, 30 μM for 24 h, thermal neutrons 0–45 min, colony formation after 7 days
Procedure: BNCT experiments using A549 cells in the presence of the aforementioned B-containing drugs (^10B/^11B and ^10B-enriched compounds) were conducted at the Institute for Integrated Radiation and Nuclear Science, Kyoto University (KURNS). As shown in Scheme 12, A549 cells were incubated with the boron compounds (30 μM) for 24 h and suspensions (5 × 10^4 cells/mL) of these cells were irradiated with thermal neutrons [average thermal neutron flux: (1.5 ± 0.1) × 10^9 n/cm^2·s] at room temperature for various times (0, 15, 30, and 45 min). The irradiated cells were seeded on the 12 well plate (3 × 10^3 cells/well), incubated for 7 days, fixed with EtOH, and stained with crystal violet to produce visualizable images (Figure S5 in the Supporting Information). The surviving fractions were calculated as the stained colony area using the “ImageJ-plugin Colony Area”[43] software and normalized by comparing the results with those for non-irradiated cell samples (Figure 6).
A549 cells (5 × 10^5 cells/well) were seeded on 6-well plates (TrueLine, USA) and incubated in cell culture medium at 37 °C under 5% CO2 for 1 day. After removing the cell culture medium, the cells were washed gently with PBS. […] The thermal neutron flux (1.5 × 10^9 n/cm^2·s) was measured by two gold foils which were attached to the surface of the 1.5 mL tube. […]

HeLa S3 cells [5] = test: Effect of inhibitors on intracellular uptake, HeLa S3 cells; type: cell-based, human; settings: HeLa S3, 30 μM, 37 °C, 1 h
Procedure: Data represent the mean ± SD of at least three replicates.
HeLa S3 and A549 cells (5 × 10^5 cells/well) were seeded on 6-well plates (TrueLine, USA) and incubated in cell culture medium at 37 °C under 5% CO2 for 2 days (n = 4). […] To count the number of cells after treatment with the boron compounds, the cells (n = 1) were washed with PBS, detached by trypsin, and counted with a hemocytometer. For measurement of boron uptake, the cells (n = 3) were washed with PBS (1 mL ×3) and digested with 60% HNO3 aq (0.5 mL) at room temperature for 24 h, which were transferred to 15 mL centrifuge tubes with Milli-Q water (3.5 mL). These tubes were centrifuged at 3000 rpm and 4 °C for 10 min and then sample solutions were filtered. The concentration of boron atoms was determined by ICP–MS (NexION300S, PerkinElmer, Waltham, Massachusetts, USA).

[6] = tested on: double-stranded calf-thymus DNA (ctDNA); test: Thermal denaturation (melting temperature) of ctDNA; type: binding; settings: pH 7.4; for Tm of ctDNA: without additive 66
Procedure: Thermal denaturation experiments of ctDNA (50 μM in phosphate) in 10 mM HEPES buffer (pH 7.4) with I = 0.02 (NaNO3) were performed on a JASCO V-550 UV/vis spectrophotometer (JASCO, Tokyo, Japan) equipped with a thermoelectric temperature controller (±0.5 °C), a stirring unit, and a 10 mm quartz cuvette. All aqueous solutions were made with purified water. The concentration of ctDNA was determined by UV absorption spectroscopy based on its molar extinction coefficient at 253 nm (ε253 = 6.6 × 10^3).[31d],[45] […] The Tm value was graphically determined from the spectral data, and the ΔTm value for each condition was calculated from the results in the presence and absence of additives.

[7] = design: method as in earlier work; settings: aqueous solution at 25 °C, ref 24−26; cited from earlier work
[8] = design: method as in PMID 32192025; settings: aqueous solution at 25 °C; cited from earlier work
[9] = Homo sapiens, HeLa S3, 0–200 μM

O=C(O)C(F)(F)F.OB(O)c1ccc(CN2CCNCCNCC2)cc1 [12a, 1-[(4-Boronopheny)methyl]-1,4,7-triazacyclononane]
melting point: 138 to 141 °C
IC50 (A549 cells [1]; Homo sapiens, A549, 24 h): > 200 µM
IC50 (IMR-90 cells; Homo sapiens, IMR-90, 24 h): > 200 µM
IC50 (HeLa S3 cells [2]; [9]): > 200 µM

O=C(O)C(F)(F)F.OB(O)c1ccc(CN2CCNCCNCCNCC2)cc1 [13a, 1-[(4-Boronopheny)methyl]-1,4,7,10-tetraazacyclododecane]
melting point: 172 to 175 °C
IC50 (A549 cells [1]; Homo sapiens, A549, 24 h): > 200 µM
IC50 (IMR-90 cells; Homo sapiens, IMR-90, 24 h): > 200 µM
IC50 (HeLa S3 cells [2]; [9]): > 200 µM

O=C(O)C(F)(F)F.OB(O)c1ccc(CN2CCNCCNCCNCCNCC2)cc1 [14a, 1-[(4-Boronopheny)methyl]-1,4,7,10,13-pentaazacyclopentadecane]
melting point: 136 to 137 °C
IC50 (A549 cells [1]; Homo sapiens, A549, 24 h): > 200 µM
IC50 (IMR-90 cells; Homo sapiens, IMR-90, 24 h): > 200 µM
IC50 (HeLa S3 cells [2]; [9]): > 200 µM

c1cc(B2OC3(CCCCC3)C3(CCCCC3)O2)ccc1CN1CCNCCNCC1 [15a]
melting point: 65 to 67 °C

c1cc(CN2CCNCCNCC2)cc(B2OC3(CCCCC3)C3(CCCCC3)O2)c1 [15b]
melting point: 57 to 58 °C

c1cc(B2OC3(CCCCC3)C3(CCCCC3)O2)ccc1CN1CCNCCNCCNCC1 [16a]
melting point: 129 to 131 °C

c1cc(CN2CCNCCNCCNCC2)cc(B2OC3(CCCCC3)C3(CCCCC3)O2)c1 [16b]
melting point: 46 to 48 °C

c1cc(B2OC3(CCCCC3)C3(CCCCC3)O2)ccc1CN1CCNCCNCCNCCNCC1 [17a]
melting point: 43 to 44 °C

c1ccc(B2OC3(CCCCC3)C3(CCCCC3)O2)c(CN2CCNCCNCCNCCNCC2)c1 [17c, 1-[2-(13,15-Dioxa-15-boradispiro[5.0.5.3]pentadec-14-yl)phenyl]methyl-1,4,7,10,13-pentaazacyclopentadecane]
melting point: 78 to 80 °C

[Zn+2].c1ccc(B2OC3(CCCCC3)C3(CCCCC3)O2)c(CN2CCNCCNCCNCCNCC2)c1 [20c]
half-life of C–B bond hydrolysis [3]: ~24 h

c1cc(C2OC3(CCCCC3)C3(CCCCC3)O2)ccc1CN1CCNCCNCCNCCNCC1 [^10B-17a, 1-[4-(13,15-Dioxa-15-boradispiro[5.0.5.3]pentadec-14-yl)phenyl]methyl-1,4,7,10,13-pentaazacyclopentadecane]
BNCT effect (cytotoxic activity after thermal neutron irradiation, surviving fraction) (A549 cells [4]): higher than that for 1 (^10B-BSH) and 2 (^10B-BPA); also recorded: higher BNCT effect than ^10B-19b and ^10B-20a

N[C@@H](Cc1ccc([10B](O)O)cc1)C(=O)O [compound 2, L-4-boronophenylalanine, reference compound]
relative uptake in the presence of MβCD (HeLa S3 cells [5]; 1.5 mM of MβCD): weak inhibition
relative uptake in the presence of amiloride (HeLa S3 cells [5]; 2 mM of amiloride): increased intracellular uptake
IC50 (A549 cells [1]; Homo sapiens, A549, 24 h, MTT, 0–200 μM, treatment for 24 h): > 200 µM
IC50 (IMR-90 cells; Homo sapiens, IMR-90, 24 h): > 200 µM
IC50 (HeLa S3 cells [2]; [9]): > 200 µM

NCCCCNCCCN [compound 3, spermidine]
ΔTm of ctDNA ([6]; r = 0.1, [ctDNA(P)] = 50 μM): +7 °C
Tm of ctDNA ([6]; r = 0.1, [ctDNA(P)] = 50 μM): 73 °C
ΔTm of ctDNA ([6]; r = 0.2, [ctDNA(P)] = 50 μM): +12 °C
Tm of ctDNA ([6]; r = 0.2, [ctDNA(P)] = 50 μM): 78 °C

C1CNCCNCCN1 [compound 9, 1,4,7-triazacyclononane]
pKa1 [7]: less than 2

C1CNCCNCCNCCN1 [compound 10, 1,4,7,10-tetraazacyclododecane]
pKa1 [7]: less than 2
pKa2 [7]: less than 2

C1CNCCNCCNCCNCCN1 [compound 11, 1,4,7,10,13-pentaazacyclopentadecane]
pKa1 [7]: less than 2
pKa2 [7]: less than 2

C1CNCCNCCN1.[Zn+2] [compound 31]
log KZnL [8]: 11.3

sodium mercaptoborate [compound 1, reference compound]
IC50 (A549 cells [1]; MTT, 0–200 μM, treatment for 24 h): > 200 µM
IC50 (IMR-90 cells): > 200 µM
IC50 (HeLa S3 cells [2]; 0–200 μM): > 200 µM
